Data taken from patent US6060516A, “N^1 -propargylhydrazines, N^2 -propargylhydrazines and their analogs for the treatment of depression, anxiety and neurodegeneration” (CV Technologies, Inc., priority 1998, dated 2000).

Key:
[1] = tested on: rat brain and liver monoamine oxidase-B; test: Monoamine oxidase-B inhibiting activity ex vivo; type: in vivo
Experimental: (§1) Radiolabelled β-phenylethylamine was employed as a substrate for monoamine oxidase-B. The compounds of interest were either injected intraperitoneally in DMSO or administered by gavage in water for various periods. The animals were killed by decapitation and the brains and livers immediately removed and frozen until assayed for monoamine oxidase-B activity. Tissues were homogenized and appropriately diluted in buffer prior to incubation. Incubations proceeded at 37° C. for 10 minutes. Incubation was terminated by the addition of acid and the radiolabelled product (phenylacetic acid) was extracted and quantified by liquid scintillation counting procedures. Incubations were done in triplicate and incubations containing phenelzine were included for comparison. The percent inhibition of monoamine oxidase-B activity compared to controls containing no drug was calculated.
(§2) Values are the mean ± the standard error based on (n) determinations.
(§3) Oral doses were administered as 75 μmol/kg on day 1, 75 μmol/kg on
(§4) day 2 and the animals were killed 5 hours later.

[2] = target: T1, rat brain monoamine oxidase-A (Rattus norvegicus, UniProt P21396); test: Monoamine oxidase-A inhibiting activity in vitro (radiochemical, 5-hydroxytryptamine substrate, rat brain homogenate); type: biochemical
T1 construct: appropriately diluted homogenates of rat brain or liver; from tissue; host or cells: rat brain or liver homogenate
T1 sequence (P21396 1-526): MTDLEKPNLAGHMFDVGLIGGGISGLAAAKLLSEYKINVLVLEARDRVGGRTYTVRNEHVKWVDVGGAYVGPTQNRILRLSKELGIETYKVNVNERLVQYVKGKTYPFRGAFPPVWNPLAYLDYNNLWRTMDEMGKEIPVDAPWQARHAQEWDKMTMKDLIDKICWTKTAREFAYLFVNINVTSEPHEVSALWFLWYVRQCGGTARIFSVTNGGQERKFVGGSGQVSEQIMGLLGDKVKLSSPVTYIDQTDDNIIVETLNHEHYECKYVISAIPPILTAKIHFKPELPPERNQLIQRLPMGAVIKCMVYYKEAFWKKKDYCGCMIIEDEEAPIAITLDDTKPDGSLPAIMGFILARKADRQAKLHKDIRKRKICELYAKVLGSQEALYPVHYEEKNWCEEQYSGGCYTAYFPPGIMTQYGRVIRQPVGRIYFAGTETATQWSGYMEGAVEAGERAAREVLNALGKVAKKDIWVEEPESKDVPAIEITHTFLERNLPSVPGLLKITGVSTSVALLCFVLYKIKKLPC
Experimental: Radiolabelled 5-hydroxytryptamine was used as the substrate for monoamine oxidase-A. Various concentrations of the compounds were incubated in appropriately diluted homogenates of rat brain or liver in a 0.2 M potassium phosphate buffer. Incubations proceeded at 37° C. for 10 minutes. Incubation was terminated by the addition of acid and the radiolabelled product (5-hydroxyindoleacetic acid) was extracted and quantified by liquid scintillation counting procedures. Incubations were done in triplicate and incubations containing phenelzine were included for comparison. The percent inhibition of monoamine oxidase-A activity compared to controls without the compounds of the present invention was calculated.

[3] = tested on: rat brain and liver monoamine oxidase-A; test: Monoamine oxidase-A inhibiting activity ex vivo; type: in vivo
Experimental: as §1, with “5-hydroxytryptamine” for “β-phenylethylamine”, “used” for “employed”, “oxidase-A.” for “oxidase-B.”, “intraperitonealy” for “intraperitoneally”, “oxidase-A” for “oxidase-B”, “(5-hydroxyindoleacetaldehyde and 5-hydroxyindoleacetic” for “(phenylacetic”
as §2, §3, §4

[4] = tested on: NA, DA, 5-HT, 5-HIAA and DOPAC concentrations in rat hypothalamus; test: Rat hypothalamus amine and amine metabolite concentrations; type: in vivo
Experimental: The effects of various doses of CVT-P040 on the concentrations of hypothalamus amine neurotransmitters and their metabolites were evaluated by examining concentrations of noradrenaline (NA), dopamine (DA), 5-hydroxytryptamine (5-HT), 5-hydroxyindoleacetic acid (5-HIAA) and 3,4-dihydroxyphenylacetic acid (DOPAC) in rat hypothalami 5 hours after the injection of the drug. […] The brains were removed and divided in half. One half of the brain was frozen in isopentane on dry ice and retained for estimates of amino acid neurotransmitter concentrations. The other half had the hypothalamus removed and frozen on dry ice for later estimates of amines and their metabolites according to the method of Sloley, B. D. and Goldberg J. I. (1991), Determination of γ-glutamyl conjugates of monoamines by means of high-performance liquid chromatography with electrochemical detection and application to gastropod tissues, J. Chromatog. 567: 49-56. The rest of the brain was frozen on dry ice for ex vivo examination of MAO activity as described earlier.

[5] = tested on: valine, alanine and gamma-aminobutyric acid (GABA) concentrations in rat brain; test: Brain valine, alanine and gamma-aminobutyric acid (GABA) concentrations; type: in vivo
Experimental: Effects of various doses of CVT-P040, CVT-P041 and phenelzine on the concentrations of some brain amino acids were evaluated by examining concentrations of gamma-aminobutyric acid (GABA) 5 hours after the injection of the drug. Briefly, rats were injected with CVT-P040 ([…]), vehicle, or phenelzine (150 μmol/kg) and killed 3 or 5 hours later. The brains were removed and divided in half. One half of the brain was frozen in isopentane on dry ice and retained for estimates of GABA concentrations. GABA and other amino acid concentrations were estimated using the method of Wong, J. T. F., Baker, G. B. and Coutts, R. T. (1990), A rapid, sensitive assay for γ-aminobutyric acid in brain using electron-capture gas chromatography, Res. Comm. Chem. Path. Pharmacol. 70: 115-122.

SMILES: C#CCN(N)CCc1ccccc1 [CVT-P040, N^1 -propargylphenelzine]
- % Inhibition of Monoamine Oxidase-B ([1]; brain, 0.58 μmol/kg, 5 hr, i.p. in 10% DMSO (Table 4, MAO-B by title)): -4.7 ± 2.0%
- % Inhibition of Monoamine Oxidase-B ([1]; brain, 5.75 μmol/kg, 5 hr, i.p. in 10% DMSO (Table 4, MAO-B by title)): 11.8 ± 5.1%
- % Inhibition of Monoamine Oxidase-B ([1]; brain, 57.5 μmol/kg, 5 hr, i.p. in 10% DMSO (Table 4, MAO-B by title)): 66.1 ± 6.9%
- % Inhibition of Monoamine Oxidase-B ([1]; brain, 150 μmol/kg, 5 hr, i.p. in 10% DMSO (Table 4, MAO-B by title)): 85.5 ± 1.7%
- % Inhibition of Monoamine Oxidase-B ([1]; brain, 173 μmol/kg, 5 hr, i.p. in 10% DMSO (Table 4, MAO-B by title)): 93.2 ± 0.8%
- % Inhibition of Monoamine Oxidase-B ([1]; brain, 2 × 75 μmol/kg per os (Table 4, MAO-B by title)): 85.4 ± 2.1%
- % Inhibition of Monoamine Oxidase-B ([1]; liver, 0.58 μmol/kg, 5 hr, i.p. in 10% DMSO (Table 4, MAO-B by title)): 1.1 ± 5.4%
- % Inhibition of Monoamine Oxidase-B ([1]; liver, 5.75 μmol/kg, 5 hr, i.p. in 10% DMSO (Table 4, MAO-B by title)): 29.3 ± 2.8%
- % Inhibition of Monoamine Oxidase-B ([1]; liver, 57.5 μmol/kg, 5 hr, i.p. in 10% DMSO (Table 4, MAO-B by title)): 64.0 ± 5.5%
- % Inhibition of Monoamine Oxidase-B ([1]; liver, 173 μmol/kg, 5 hr, i.p. in 10% DMSO (Table 4, MAO-B by title)): 87.9 ± 1.0%
- % Inhibition of Monoamine Oxidase-B ([1]; liver, 2 × 75 μmol/kg per os (Table 4, MAO-B by title)): 82.3 ± 2.3%
- inhibition at 100 µM ([2]; 1 × 10^-4 M): 99.5%
- inhibition at 10 µM ([2]; 1 × 10^-5 M): 99.1%
- inhibition at 1 µM ([2]; 1 × 10^-6 M): 71.1%
- inhibition at 0.1 µM ([2]; 1 × 10^-7 M): 20.6%
- inhibition at 0.01 µM ([2]; 1 × 10^-8 M): 0.7%
- % Inhibition Monoamine Oxidase-A ([3]; brain, 0.58 μmol/kg, 5 hr, i.p. in 10% DMSO): 7.2 ± 5.1%
- % Inhibition Monoamine Oxidase-A ([3]; brain, 5.75 μmol/kg, 5 hr, i.p. in 10% DMSO): 9.1 ± 4.9%
- % Inhibition Monoamine Oxidase-A ([3]; brain, 57.5 μmol/kg, 5 hr, i.p. in 10% DMSO): 86.6 ± 6.7%
- % Inhibition Monoamine Oxidase-A ([3]; brain, 150 μmol/kg, 5 hr, i.p. in 10% DMSO): 96.7 ± 0.6%
- % Inhibition Monoamine Oxidase-A ([3]; brain, 173 μmol/kg, 5 hr, i.p. in 10% DMSO): 98.4 ± 0.1%
- % Inhibition Monoamine Oxidase-A ([3]; brain, 2 × 75 μmol/kg per os (day 1 and day 2, killed 5 hours later)): 96.9 ± 0.8%
- % Inhibition Monoamine Oxidase-A ([3]; liver, 0.58 μmol/kg, 5 hr, i.p. in 10% DMSO): -6.1 ± 4.4%
- % Inhibition Monoamine Oxidase-A ([3]; liver, 5.75 μmol/kg, 5 hr, i.p. in 10% DMSO): 43.7 ± 5.4%
- % Inhibition Monoamine Oxidase-A ([3]; liver, 57.5 μmol/kg, 5 hr, i.p. in 10% DMSO): 91.7 ± 2.3%
- % Inhibition Monoamine Oxidase-A ([3]; liver, 173 μmol/kg, 5 hr, i.p. in 10% DMSO): 97.7 ± 0.3%
- % Inhibition Monoamine Oxidase-A ([3]; liver, 2 × 75 μmol/kg per os (day 1 and day 2, killed 5 hours later)): 95.4 ± 0.7%
- 5-HIAA ([4]; 0.58 μmol/kg, 5 hr, ip): 350 ± 28 ng/g
- 5-HT ([4]; 0.58 μmol/kg, 5 hr, ip): 652 ± 69 ng/g
- DA ([4]; 0.58 μmol/kg, 5 hr, ip): 716 ± 82 ng/g
- DOPAC ([4]; 0.58 μmol/kg, 5 hr, ip): 77 ± 9 ng/g
- NA ([4]; 0.58 μmol/kg, 5 hr, ip): 1155 ± 81 ng/g
- 5-HIAA ([4]; 5.75 μmol/kg, 5 hr, ip): 327 ± 26 ng/g
- 5-HT ([4]; 5.75 μmol/kg, 5 hr, ip): 634 ± 58 ng/g
- DA ([4]; 5.75 μmol/kg, 5 hr, ip): 717 ± 85 ng/g
- DOPAC ([4]; 5.75 μmol/kg, 5 hr, ip): 80 ng/g
- NA ([4]; 5.75 μmol/kg, 5 hr, ip): 1332 ± 98 ng/g
- 5-HIAA ([4]; 57.5 μmol/kg, 5 hr, ip): 294 ± 22 ng/g
- 5-HT ([4]; 57.5 μmol/kg, 5 hr, ip): 1324 ng/g
- DA ([4]; 57.5 μmol/kg, 5 hr, ip): 753 ± 99 ng/g
- DOPAC ([4]; 57.5 μmol/kg, 5 hr, ip): 49 ng/g
- NA ([4]; 57.5 μmol/kg, 5 hr, ip): 1672 ± 82 ng/g
- 5-HIAA ([4]; 150 μmol/kg, 5 hr, ip): 131 ± 8 ng/g
- 5-HT ([4]; 150 μmol/kg, 5 hr, ip): 1497 ng/g
- DA ([4]; 150 μmol/kg, 5 hr, ip): 522 ± 28 ng/g
- DOPAC ([4]; 150 μmol/kg, 5 hr, ip): 45 ± 4 ng/g
- NA ([4]; 150 μmol/kg, 5 hr, ip): 2050 ± 202 ng/g
- 5-HIAA ([4]; 173 μmol/kg, 5 hr, ip): 148 ± 10 ng/g
- 5-HT ([4]; 173 μmol/kg, 5 hr, ip): 1509 ng/g
- DA ([4]; 173 μmol/kg, 5 hr, ip): 865 ± 19 ng/g
- DOPAC ([4]; 173 μmol/kg, 5 hr, ip): 30 ng/g
- NA ([4]; 173 μmol/kg, 5 hr, ip): 1867 ± 253 ng/g
- 5-HIAA ([4]; 2 × 75 μmol/kg per os): 197 ng/g
- 5-HT ([4]; 2 × 75 μmol/kg per os): 1215 ± 36 ng/g
- DA ([4]; 2 × 75 μmol/kg per os): 487 ± 47 ng/g
- DOPAC ([4]; 2 × 75 μmol/kg per os): 50 ± 3 ng/g
- NA ([4]; 2 × 75 μmol/kg per os): 2230 ± 101 ng/g
- 5-HIAA concentrations ([4]; dose dependent, in words): significantly reduced 5-HIAA and DOPAC concentrations
- 5-HT concentrations ([4]; dose dependent, in words): significantly elevated 5-HT and NA concentrations
- DOPAC concentrations ([4]; dose dependent, in words): significantly reduced 5-HIAA and DOPAC concentrations
- NA concentrations ([4]; dose dependent, in words): significantly elevated 5-HT and NA concentrations
- reduction in 5-hydroxyindoleacetic acid concentrations compared with phenelzine ([4]; equivalent doses, in words): comparable to that determined with equivalent doses of phenelzine
- GABA ([5]; 150 μmol/kg, 5 hr, ip): 270 ± 23 µg/g
- Valine ([5]; 150 μmol/kg, 5 hr, ip): 22.9 ± 1.4 µg/g
- GABA concentrations ([5]; doses as high as 150 μmol/kg, in words): did not elevate GABA concentrations
- elevation of alanine ([5]; in words): elevation of alanine was not seen
